Results taken from the supplement of paper PMC13380429.

How the values were obtained:
Settings in all cases: 72 h
Calu-3 [1] = assay: relative viability EC50 (midpoint between 100% and the lowest measured viability); higher = less toxic
Vero E6 [2] = assay: as above
HepG2 [3] = assay: as above
Caco-2 [4] = assay: as above
Calu-3 [5] = assay: drug sensitivity score (DSS) for viability; higher = more toxic; extreme values may be limits of the assay
Vero E6 [6] = assay: as above
U2OS [7] = assay: as above
HepG2 [8] = assay: as above
Caco-2 [9] = assay: as above
Calu-3 [10] = assay: cell viability relative to DMSO; higher = less toxic
Vero E6 [11] = assay: as above
U2OS [12] = assay: as above
HepG2 [13] = assay: as above
Caco-2 [14] = assay: as above
U2OS [15] = assay: relative viability EC50 (midpoint between 100% and the lowest measured viability); higher = less toxic

SMILES | relative viability EC50 (Calu-3 [1]) | relative viability EC50 (Vero E6 [2]) | relative viability EC50 (HepG2 [3]) | relative viability EC50 (Caco-2 [4]) | drug sensitivity score (Calu-3 [5]) | drug sensitivity score (Vero E6 [6]) | drug sensitivity score (U2OS [7]) | drug sensitivity score (HepG2 [8]) | drug sensitivity score (Caco-2 [9]) | cell viability (Calu-3 [10]; 1 nM) | cell viability (Calu-3 [10]; 10 nM) | cell viability (Calu-3 [10]; 100 nM) | cell viability (Calu-3 [10]; 1000 nM) | cell viability (Calu-3 [10]; 10000 nM) | cell viability (Vero E6 [11]; 1 nM) | cell viability (Vero E6 [11]; 10 nM) | cell viability (Vero E6 [11]; 100 nM) | cell viability (Vero E6 [11]; 1000 nM) | cell viability (Vero E6 [11]; 10000 nM) | cell viability (U2OS [12]; 1 nM) | cell viability (U2OS [12]; 10 nM) | cell viability (U2OS [12]; 100 nM) | cell viability (U2OS [12]; 1000 nM) | cell viability (U2OS [12]; 10000 nM) | cell viability (HepG2 [13]; 1 nM) | cell viability (HepG2 [13]; 10 nM) | cell viability (HepG2 [13]; 100 nM) | cell viability (HepG2 [13]; 1000 nM) | cell viability (HepG2 [13]; 10000 nM) | cell viability (Caco-2 [14]; 1 nM) | cell viability (Caco-2 [14]; 10 nM) | cell viability (Caco-2 [14]; 100 nM) | cell viability (Caco-2 [14]; 1000 nM) | cell viability (Caco-2 [14]; 10000 nM) | relative viability EC50 (U2OS [15])
CC(C)[C@@H](CS(=O)(=O)C(C)C)N1C(=O)[C@@](C)(CC(=O)O)C[C@H](c2cccc(Cl)c2)[C@H]1c1ccc(Cl)cc1 [AMG-232] | > 10 µM | 0.568 µM | 0.266 µM | > 10 µM | 0 | 8.1 | 5.2 | 14 | 0.7 | 99.9% | 92.4% | 93.1% | 96.7% | 93.8% | 96.8% | 99.1% | 98.4% | 58.1% | 44.6% | 98.5% | 95.5% | 97.4% | 71.2% | 65.8% | 102% | 96% | 85.9% | 33.5% | 24.4% | 99.6% | 97.7% | 94.2% | 91.3% | 82.9% | –
O=c1[nH]c(CCl)nc2sc3c(c12)CCCC3 | > 10 µM | > 10 µM | > 10 µM | – | 0 | 0 | 0.5 | 0.2 | 1.4 | 116% | 98.1% | 97.9% | 92% | 109% | 99.4% | 101% | 95.8% | 96.4% | 92.9% | 103% | 94.5% | 98.8% | 100% | 80.6% | 92.7% | 94.5% | 96.2% | 107% | 81.8% | 96.8% | 99.1% | 98.3% | 98.8% | 71% | > 10 µM
CN(Cc1ccccc1)C(=O)[C@H](Cc1ccc2ccccc2c1)NC(=O)[C@@H]1C[C@@H](O)CN1C(=O)c1cn(C)c2ccccc12 [FK-888] | > 10 µM | > 10 µM | > 10 µM | – | 0.6 | 0 | 0 | 1.1 | 2.2 | 99.3% | 94% | 90.6% | 90.5% | 86.7% | 105% | 103% | 101% | 95.2% | 99% | 103% | 98.7% | 98.5% | 103% | 87.2% | 106% | 111% | 106% | 93% | 82.3% | 99.7% | 105% | 99.2% | 94.7% | 69.3% | > 10 µM
Cc1c[nH]c(=O)n(CCCN2CCN(c3ccccc3OCC(F)(F)F)CC2)c1=O | > 10 µM | > 10 µM | > 10 µM | – | 0.3 | 0 | 0 | 0 | – | 90.5% | 99% | 99.1% | 96.6% | 87.4% | 102% | 96.2% | 99.2% | 98.7% | 105% | 101% | 102% | 100% | 101% | 102% | 98.7% | 96.2% | 95.9% | 98.2% | 103% | – | – | – | – | – | > 10 µM
COC[C@@H](NC(C)=O)C(=O)NCc1ccccc1 [Lacosamide] | > 10 µM | > 10 µM | > 10 µM | > 10 µM | 0 | 0 | 0 | 0 | 0 | 99.1% | 99.5% | 90.6% | 114% | 110% | 98.5% | 97.4% | 86% | 90.6% | 104% | – | – | – | – | – | 98.3% | 97.5% | 98.3% | 98% | 96.1% | 92.8% | 90.5% | 81.7% | 98.8% | 106% | > 10 µM
COc1cc2c(cc1Cc1cccc(Cl)c1F)c(=O)c(C(=O)O)cn2[C@H](CO)C(C)C [elvitegravir] | > 10 µM | > 10 µM | > 10 µM | – | 0.2 | 0 | 0.5 | 0 | 1.4 | 99.2% | 97.4% | 102% | 96.7% | 88.1% | 101% | 97.9% | 98% | 93.6% | 99.5% | 93.6% | 95.7% | 92.8% | 96.3% | 80.3% | 117% | 106% | 109% | 104% | 91% | 95.3% | 91.8% | 87.6% | 99.8% | 69.3% | > 10 µM
CCC[C@@H](NC(=O)N1C(=O)C(CC)(CC)[C@@H]1Oc1ccc(C(=O)N2CCN(C)CC2)cc1)c1ccc2c(c1)OCO2 [DMP-777] | > 10 µM | > 10 µM | > 10 µM | – | 0 | 0 | 0.1 | 0 | 1.4 | 105% | 110% | 105% | 95.4% | 94.1% | 94.8% | 95.5% | 93.4% | 93.7% | 96.8% | 93.7% | 103% | 98.5% | 96.7% | 88% | 95.3% | 97.1% | 102% | 90.8% | 93% | 103% | 95% | 99.6% | 105% | 63.3% | > 10 µM
CC(C)(C)NC(=O)N[C@H](C(=O)N1C[C@H]2[C@@H]([C@H]1C(=O)NC(CC1CCC1)C(=O)C(N)=O)C2(C)C)C(C)(C)C (stereo partly specified) [boceprevir] | > 10 µM | > 10 µM | > 10 µM | – | 0 | 0 | 0 | 0 | – | 93.7% | 101% | 101% | 95.2% | 105% | 100% | 102% | 93.9% | 96.1% | 93.9% | 102% | 98.6% | 99.6% | 96.4% | 97.5% | 98.2% | 96.9% | 109% | 93.7% | 95.7% | – | – | – | – | – | > 10 µM
